Source: patent publication US10654808B2, “Tyrosine kinase inhibitor and pharmaceutical composition comprising same” (GUANGDONG RAYNOVENT BIOTECH CO., LTD., priority 2015, dated 2020)

Experiments:
VEGFR2 = target: T1, VEGFR2 (Homo sapiens, UniProt P35968); experiment: Z'-LYTE in vitro enzyme activity assay, VEGFR2; type: biochemical; settings: 100 μM ATP, 60 minutes, room temperature; read-out: IC50 detected by Z'-LYTE, VEGFR2
T1 construct: purchased Life technology
Method in brief: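 Reaction with 3 nM VEGFR2, 2 μM Tyr1 peptide and 100 μM ATP in HEPES pH 7.5/MgCl2/EGTA/BRIJ-35, 1% DMSO, 60 min at room temperature; development reagent then 60 min at 23° C. Compounds tested at 11 threefold dilutions, 10 μM–0.17 nM final, in duplicate; IC50 from 4-parameter fit of inhibition.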

PDGFRB = target: T2, PDGFRB (Homo sapiens, UniProt P09619); experiment: Z'-LYTE in vitro enzyme activity assay, PDGFRB; type: biochemical; settings: 100 μM ATP, 60 minutes, room temperature; read-out: IC50 detected by Z'-LYTE, PDGFRB
T2 construct: purchased Millipore
Method in brief: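 Z′-LYTE FRET kinase assay using 40 nM PDGFRB, 2 μM Tyr4 peptide and 100 μM ATP in HEPES pH 7.5 with Mg2+/Mn2+ and 1% DMSO. The reaction ran 60 min at room temperature, followed by development for 60 min at 23 °C. IC50 values came from 4-parameter fits over 11 concentrations (10 μM–0.17 nM).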

HUVEC = experiment: CellTiter-Glo luminescent cell viability assay, HUVEC stimulated with hVEGF-165; type: cell-based; settings: Homo sapiens, hVEGF-165 20 ng/ml, 72 hours, read-out: IC50 detected by CellTiter-Glo, HUVEC
Protocol: The intracellular ATP changes were measured by CellTiter-Glo® Luminescent Cell Viability Assay. The IC50 value of the compounds was used as an index to evaluate the inhibitory effect of the compounds on HUVEC in vitro.
HUVEC cell line (ATCC), EGM-2 BulletKit (Lonza), hVEGF-165 (Cell Signaling), trypsin (Invitrogen), DPBS (Hyclone), 384 cell plate (Greiner), 384 compound plate (Greiner), CO2 incubator (Thermo), centrifuge (Eppendorf), Vi-cell cell counter (Beckman Coulter), Bravo Automatic Liquid Workstation (Agilent), Envision (Perkin Elmer)
B: Cell plating: HUVEC cells were resuspended with starved medium (only containing 2% FBS and 0.1% GA-1000) and diluted to a concentration of 20,000/mL. The diluted cells were added to a 384 plate (Greiner), 50 μl per well. The cell plates were placed in a 37° C., 5% CO2 incubator overnight.
C: Drug addition: the test compounds were diluted 4 times to obtain a total of 10 doses at a final concentration of 10 uM to 0.038 nM, two parallel wells. The middle plate was added with 47.6 uL of starved medium per well. 2.4 μl of compounds was transferred from a gradient dilution compound plate to a middle plate and mixed well. 5 μl of liquid was transferred from the middle plate to a cell plate. Incubate for 1 hour at 37° C. in a 5% CO2 incubator, 5 μl of starved medium containing hVEGF-165 (the final concentration was 20 ng/ml) and Heparin (the final concentration was 1 ng/m) were added and incubated at 37° C. in a 5% CO2 incubator for 72 hours.
D: After 72 hours, 30 μl of assay reagents was added and incubated at room temperature for 10-30 minutes, Envision was used to read the plate.
The reading was converted into suppression rate (%) (Max−Sample)/(Max−Min)*100%. Parameter curve fitting (Model 205 in XLFIT5, iDBS) was used to measure to obtain IC50 data.

FGFR1 = target: T3, FGFR1 (Homo sapiens, UniProt P11362); experiment: Z'-LYTE in vitro enzyme activity assay, FGFR1; type: biochemical; settings: 25 μM ATP, 60 minutes, room temperature; read-out: IC50 detected by Z'-LYTE, FGFR1
T3 construct: purchased Life technology
Method in brief: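 Z′-LYTE FRET assay with 1 nM FGFR1, 2 μM Tyr4 peptide and 25 μM ATP in HEPES pH 7.5 with Mg/Mn, 60 min at room temperature, then development 60 min at 23 °C. Compounds tested at 11 concentrations from 10 μM to 0.17 nM in 1% DMSO. IC50 from 4-parameter fit of inhibition.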

T2 sequence (P09619 33-1106): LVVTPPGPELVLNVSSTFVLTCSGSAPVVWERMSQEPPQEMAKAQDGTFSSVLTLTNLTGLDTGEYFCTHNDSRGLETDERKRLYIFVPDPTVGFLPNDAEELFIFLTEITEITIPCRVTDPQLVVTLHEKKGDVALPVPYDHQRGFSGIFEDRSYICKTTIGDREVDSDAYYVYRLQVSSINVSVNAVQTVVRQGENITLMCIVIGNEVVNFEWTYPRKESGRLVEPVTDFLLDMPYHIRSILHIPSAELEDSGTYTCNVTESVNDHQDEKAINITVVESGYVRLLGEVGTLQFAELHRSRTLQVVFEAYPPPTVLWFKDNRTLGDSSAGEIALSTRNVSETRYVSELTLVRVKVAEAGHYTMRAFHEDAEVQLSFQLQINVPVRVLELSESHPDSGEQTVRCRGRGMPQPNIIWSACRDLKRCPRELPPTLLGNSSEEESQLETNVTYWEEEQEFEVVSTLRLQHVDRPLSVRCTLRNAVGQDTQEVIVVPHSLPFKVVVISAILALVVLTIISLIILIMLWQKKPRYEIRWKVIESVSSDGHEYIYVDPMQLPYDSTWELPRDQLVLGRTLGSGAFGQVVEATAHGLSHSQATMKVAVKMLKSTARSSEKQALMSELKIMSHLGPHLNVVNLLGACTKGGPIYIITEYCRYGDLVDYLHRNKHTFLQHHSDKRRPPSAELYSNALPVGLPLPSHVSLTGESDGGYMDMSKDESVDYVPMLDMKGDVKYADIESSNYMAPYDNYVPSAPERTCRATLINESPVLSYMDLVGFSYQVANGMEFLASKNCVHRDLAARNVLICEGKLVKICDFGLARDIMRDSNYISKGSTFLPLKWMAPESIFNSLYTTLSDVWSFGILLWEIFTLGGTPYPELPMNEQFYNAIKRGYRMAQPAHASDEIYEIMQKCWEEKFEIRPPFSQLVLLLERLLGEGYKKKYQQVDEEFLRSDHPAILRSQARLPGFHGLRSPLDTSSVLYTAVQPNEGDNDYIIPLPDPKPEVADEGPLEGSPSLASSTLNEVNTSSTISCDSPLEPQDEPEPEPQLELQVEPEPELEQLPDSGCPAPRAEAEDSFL
T3 sequence (P11362 22-822): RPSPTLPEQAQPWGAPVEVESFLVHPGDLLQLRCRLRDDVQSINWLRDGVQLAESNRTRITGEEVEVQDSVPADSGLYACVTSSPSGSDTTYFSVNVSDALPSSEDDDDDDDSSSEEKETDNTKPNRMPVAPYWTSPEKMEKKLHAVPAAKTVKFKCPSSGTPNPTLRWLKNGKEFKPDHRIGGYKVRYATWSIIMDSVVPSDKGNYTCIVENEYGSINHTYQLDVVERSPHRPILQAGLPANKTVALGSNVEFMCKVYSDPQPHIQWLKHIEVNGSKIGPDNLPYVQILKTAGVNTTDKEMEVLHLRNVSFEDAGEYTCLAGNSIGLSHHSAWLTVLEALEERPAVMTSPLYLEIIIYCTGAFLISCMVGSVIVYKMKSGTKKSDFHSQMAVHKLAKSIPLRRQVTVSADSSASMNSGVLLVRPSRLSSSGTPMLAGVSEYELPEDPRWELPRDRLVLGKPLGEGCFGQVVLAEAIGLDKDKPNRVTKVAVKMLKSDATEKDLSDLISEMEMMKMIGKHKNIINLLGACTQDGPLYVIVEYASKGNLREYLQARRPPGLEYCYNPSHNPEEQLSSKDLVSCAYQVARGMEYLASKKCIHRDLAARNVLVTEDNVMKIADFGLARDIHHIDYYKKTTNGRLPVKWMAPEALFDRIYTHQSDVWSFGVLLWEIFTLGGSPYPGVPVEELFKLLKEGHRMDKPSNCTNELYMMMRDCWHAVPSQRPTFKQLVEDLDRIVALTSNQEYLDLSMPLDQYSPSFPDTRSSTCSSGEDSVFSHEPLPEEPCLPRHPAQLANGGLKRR
T1 sequence (P35968 20-1356): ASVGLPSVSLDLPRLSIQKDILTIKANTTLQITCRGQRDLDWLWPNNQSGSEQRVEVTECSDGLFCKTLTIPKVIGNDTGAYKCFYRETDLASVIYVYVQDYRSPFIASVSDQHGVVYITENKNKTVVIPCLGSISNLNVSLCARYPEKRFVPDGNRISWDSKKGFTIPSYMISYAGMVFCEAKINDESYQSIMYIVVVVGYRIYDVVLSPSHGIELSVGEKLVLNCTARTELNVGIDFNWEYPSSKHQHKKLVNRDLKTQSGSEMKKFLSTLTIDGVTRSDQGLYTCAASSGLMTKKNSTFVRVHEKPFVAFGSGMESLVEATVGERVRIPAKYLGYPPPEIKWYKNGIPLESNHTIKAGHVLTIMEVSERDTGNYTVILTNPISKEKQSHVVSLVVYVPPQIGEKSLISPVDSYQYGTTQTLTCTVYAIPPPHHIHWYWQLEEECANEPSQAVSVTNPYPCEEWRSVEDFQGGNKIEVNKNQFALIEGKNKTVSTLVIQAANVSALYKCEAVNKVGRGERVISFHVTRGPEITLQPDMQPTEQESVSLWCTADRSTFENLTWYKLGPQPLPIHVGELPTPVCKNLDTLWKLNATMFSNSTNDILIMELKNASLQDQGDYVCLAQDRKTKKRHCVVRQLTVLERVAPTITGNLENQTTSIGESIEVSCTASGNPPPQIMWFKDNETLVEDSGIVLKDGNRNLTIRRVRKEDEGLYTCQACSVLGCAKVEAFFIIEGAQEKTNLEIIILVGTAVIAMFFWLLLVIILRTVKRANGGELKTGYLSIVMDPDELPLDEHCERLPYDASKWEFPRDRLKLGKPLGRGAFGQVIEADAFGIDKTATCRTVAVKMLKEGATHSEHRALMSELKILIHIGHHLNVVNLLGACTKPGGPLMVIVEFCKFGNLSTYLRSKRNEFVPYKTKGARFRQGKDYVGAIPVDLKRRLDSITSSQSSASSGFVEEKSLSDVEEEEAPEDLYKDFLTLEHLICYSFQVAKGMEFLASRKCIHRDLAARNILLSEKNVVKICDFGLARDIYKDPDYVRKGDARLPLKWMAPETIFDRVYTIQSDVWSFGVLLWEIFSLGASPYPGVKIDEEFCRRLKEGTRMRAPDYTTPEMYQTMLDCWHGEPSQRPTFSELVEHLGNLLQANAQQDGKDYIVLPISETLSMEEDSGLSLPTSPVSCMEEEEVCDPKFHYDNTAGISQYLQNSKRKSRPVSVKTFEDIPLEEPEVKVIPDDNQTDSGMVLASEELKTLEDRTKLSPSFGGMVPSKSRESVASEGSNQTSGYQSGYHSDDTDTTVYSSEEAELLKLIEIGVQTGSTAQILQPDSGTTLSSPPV

Work on COc1cc2nccc(Oc3ccc(NC(=S)Nc4ccccc4)c(Cl)c3)c2cc1C(N)=O [Example 2] yielded an IC50 (VEGFR2) of 50 to 200 nM, an IC50 (PDGFRB) of 50 to 200 nM and an IC50 (HUVEC) of less than 100 nM. The IC50 (FGFR1) was 200 to 1000 nM.

In the case of COc1cc2nccc(Oc3ccc(NC(=S)NC4CCC4)c(Cl)c3)c2cc1C(N)=O [Example 6], the IC50 (VEGFR2) is reported as less than 50 nM, the IC50 (PDGFRB) is reported as 50 to 200 nM and the IC50 (HUVEC) is reported as less than 100 nM. For the same compound, the IC50 (FGFR1) was 200 to 1000 nM.

Work on COc1cc2nccc(Oc3ccc(NC(=S)NCC(F)F)c(Cl)c3)c2cc1C(N)=O [Example 12] yielded an IC50 (VEGFR2) of less than 50 nM, an IC50 (PDGFRB) of 50 to 200 nM and an IC50 (HUVEC) of less than 100 nM. For the same compound, the IC50 (FGFR1) was 50 to 200 nM.

Compound COc1cc2nccc(Oc3ccc(NC(=S)NCC(F)(F)F)c(Cl)c3)c2cc1C(N)=O [Example 16] has an IC50 (VEGFR2) of less than 50 nM, an IC50 (PDGFRB) of 50 to 200 nM and an IC50 (HUVEC) of less than 100 nM. For the same compound, the IC50 (FGFR1) was 200 to 1000 nM.

COc1cc2nccc(Oc3ccc(NC(=S)N[C@H](C)CO)c(Cl)c3)c2cc1C(N)=O [Example 21] showed an IC50 (VEGFR2) of less than 50 nM, an IC50 (PDGFRB) of 50 to 200 nM and an IC50 (HUVEC) of less than 100 nM. For the same compound, the IC50 (FGFR1) was 200 to 1000 nM.

CNC(=S)Nc1ccc(Oc2ccnc3cc(OC)c(C(N)=O)cc23)cc1Cl [Example 28] gave an IC50 (VEGFR2) of less than 50 nM, an IC50 (PDGFRB) of less than 50 nM and an IC50 (HUVEC) of less than 100 nM. The IC50 (FGFR1) was 50 to 200 nM.

COc1cc2nccc(Oc3ccc(NC(=S)NC4CC4)c(Cl)c3)c2cc1C(=O)NO [Example 50] showed an IC50 (VEGFR2) of less than 50 nM, an IC50 (PDGFRB) of 50 to 200 nM and an IC50 (HUVEC) of 100 to 1000 nM. For the same compound, the IC50 (FGFR1) was 200 to 1000 nM.

For COc1cc2nccc(Oc3ccc(NC(=S)N(C)C)c(Cl)c3)c2cc1C(N)=O [Example 55], the IC50 (VEGFR2) was 50 to 200 nM, the IC50 (PDGFRB) was 200 to 1000 nM and the IC50 (HUVEC) was 100 to 1000 nM. It also gave an IC50 (FGFR1) of 50 to 200 nM.

Work on CCNC(=S)Nc1ccc(Oc2ccnc3cc(OC)c(C(N)=O)cc23)cc1Cl [Example 56] yielded an IC50 (VEGFR2) of less than 50 nM, an IC50 (PDGFRB) of less than 50 nM and an IC50 (HUVEC) of less than 100 nM. The IC50 (FGFR1) was 50 to 200 nM.

In the case of CCOCCCOc1cc2nccc(Oc3ccc(NC(=S)NC4CC4)c(Cl)c3)c2cc1C(N)=O [Example 58], the IC50 (VEGFR2) is reported as less than 50 nM, the IC50 (PDGFRB) is reported as 50 to 200 nM and the IC50 (HUVEC) is reported as 100 to 1000 nM. The IC50 (FGFR1) was 200 to 1000 nM.

With COc1cc2nccc(Oc3ccc(NC(=S)NCC4CC4)c(Cl)c3)c2cc1C(N)=O [Example 59] the IC50 (VEGFR2) was less than 50 nM, the IC50 (PDGFRB) was 50 to 200 nM and the IC50 (HUVEC) was 100 to 1000 nM. For the same compound, the IC50 (FGFR1) was 200 to 1000 nM.

For COc1cc2nccc(Oc3ccc(NC(=S)Nc4cnn(C(C)C)c4)c(Cl)c3)c2cc1C(N)=O [Example 70], the IC50 (VEGFR2) was less than 50 nM, the IC50 (PDGFRB) was less than 50 nM and the IC50 (HUVEC) was less than 100 nM. The IC50 (FGFR1) was 200 to 1000 nM.

With COc1cc2nccc(Oc3ccc(NC(=S)NC4CC4)c(Cl)c3F)c2cc1C(N)=O [Example 78] the IC50 (VEGFR2) was less than 50 nM, the IC50 (PDGFRB) was less than 50 nM and the IC50 (HUVEC) was less than 100 nM. The IC50 (FGFR1) was 50 to 200 nM.

In the case of COc1cc2nccc(Oc3ccc(NC(=S)N4CC(F)(F)C4)c(Cl)c3F)c2cc1C(N)=O [Example 95], the IC50 (VEGFR2) is reported as less than 50 nM, the IC50 (PDGFRB) is reported as 50 to 200 nM and the IC50 (HUVEC) is reported as 100 to 1000 nM. For the same compound, the IC50 (FGFR1) was 50 to 200 nM.

For COc1cc2nccc(Oc3ccc(NC(=S)N4CCCC4)c(Cl)c3F)c2cc1C(N)=O [Example 98], the IC50 (VEGFR2) was less than 50 nM, the IC50 (PDGFRB) was 50 to 200 nM and the IC50 (HUVEC) was 100 to 1000 nM. For the same compound, the IC50 (FGFR1) was less than 50 nM.

COc1cc2nccc(Oc3ccc(NC(=S)N4CC[C@H](F)C4)c(Cl)c3F)c2cc1C(N)=O [Example 103] gave an IC50 (VEGFR2) of less than 50 nM, an IC50 (PDGFRB) of 200 to 1000 nM and an IC50 (HUVEC) of 100 to 1000 nM. The IC50 (FGFR1) was 50 to 200 nM.

[2H]C([2H])([2H])NC(=S)Nc1ccc(Oc2ccnc3cc(OC)c(C(N)=O)cc23)c(F)c1Cl [Example 112] showed an IC50 (VEGFR2) of less than 50 nM, an IC50 (PDGFRB) of less than 50 nM and an IC50 (HUVEC) of less than 100 nM. The IC50 (FGFR1) was less than 50 nM.

COc1cc2nccc(Oc3ccc(NC(=S)N4CC(F)C4)c(Cl)c3F)c2cc1C(N)=O [Example 123] showed an IC50 (VEGFR2) of less than 50 nM, an IC50 (PDGFRB) of 50 to 200 nM and an IC50 (HUVEC) of 100 to 1000 nM. For the same compound, the IC50 (FGFR1) was less than 50 nM.

For Cc1c(OC[C@H](C)O)cn2ncnc(Oc3ccc(NC(=O)NC4CC4)c(Cl)c3)c12 [Example 127], the IC50 (VEGFR2) was less than 50 nM and the IC50 (HUVEC) was less than 100 nM.

Work on COc1cc2nccc(Oc3ccc(Nc4c(NC5CC5)c(=O)c4=O)c(Cl)c3)c2cc1C(N)=O [Example 130] yielded an IC50 (VEGFR2) of 200 to 1000 nM and an IC50 (HUVEC) of 100 to 1000 nM.

COc1cc2nccc(Oc3ccc4nc(NC5CC5)sc4c3)c2cc1C(N)=O [Example 131] gave an IC50 (VEGFR2) of 200 to 1000 nM and an IC50 (HUVEC) of 100 to 1000 nM.
